Tests used:
[1] = biological target: T1, TNK2 (Homo sapiens, UniProt Q07912); assay: KINOMEscan panel screen; assay type: binding; conditions: read-out: Percent Control(%)
T1 construct: purchased DiscoveRx KINOMEscan (Ambit Biosciences)

[2] = biological target: T2, TRPM6 (Homo sapiens, UniProt Q9BX84); assay: KINOMEscan panel screen; assay type: binding; conditions: read-out: Percent Control(%)
T2 construct: purchased DiscoveRx KINOMEscan (Ambit Biosciences)

[3] = biological target: T3, DRAK1 (Homo sapiens, UniProt Q9UEE5); assay: KINOMEscan panel screen; assay type: binding; conditions: read-out: Percent Control(%)
T3 construct: purchased DiscoveRx KINOMEscan (Ambit Biosciences)

[4] = biological target: ERBB2 (Homo sapiens, UniProt P04626); assay: KINOMEscan panel screen; assay type: binding; conditions: read-out: Percent Control(%)
Sequence of ERBB2 (P04626 23-1255): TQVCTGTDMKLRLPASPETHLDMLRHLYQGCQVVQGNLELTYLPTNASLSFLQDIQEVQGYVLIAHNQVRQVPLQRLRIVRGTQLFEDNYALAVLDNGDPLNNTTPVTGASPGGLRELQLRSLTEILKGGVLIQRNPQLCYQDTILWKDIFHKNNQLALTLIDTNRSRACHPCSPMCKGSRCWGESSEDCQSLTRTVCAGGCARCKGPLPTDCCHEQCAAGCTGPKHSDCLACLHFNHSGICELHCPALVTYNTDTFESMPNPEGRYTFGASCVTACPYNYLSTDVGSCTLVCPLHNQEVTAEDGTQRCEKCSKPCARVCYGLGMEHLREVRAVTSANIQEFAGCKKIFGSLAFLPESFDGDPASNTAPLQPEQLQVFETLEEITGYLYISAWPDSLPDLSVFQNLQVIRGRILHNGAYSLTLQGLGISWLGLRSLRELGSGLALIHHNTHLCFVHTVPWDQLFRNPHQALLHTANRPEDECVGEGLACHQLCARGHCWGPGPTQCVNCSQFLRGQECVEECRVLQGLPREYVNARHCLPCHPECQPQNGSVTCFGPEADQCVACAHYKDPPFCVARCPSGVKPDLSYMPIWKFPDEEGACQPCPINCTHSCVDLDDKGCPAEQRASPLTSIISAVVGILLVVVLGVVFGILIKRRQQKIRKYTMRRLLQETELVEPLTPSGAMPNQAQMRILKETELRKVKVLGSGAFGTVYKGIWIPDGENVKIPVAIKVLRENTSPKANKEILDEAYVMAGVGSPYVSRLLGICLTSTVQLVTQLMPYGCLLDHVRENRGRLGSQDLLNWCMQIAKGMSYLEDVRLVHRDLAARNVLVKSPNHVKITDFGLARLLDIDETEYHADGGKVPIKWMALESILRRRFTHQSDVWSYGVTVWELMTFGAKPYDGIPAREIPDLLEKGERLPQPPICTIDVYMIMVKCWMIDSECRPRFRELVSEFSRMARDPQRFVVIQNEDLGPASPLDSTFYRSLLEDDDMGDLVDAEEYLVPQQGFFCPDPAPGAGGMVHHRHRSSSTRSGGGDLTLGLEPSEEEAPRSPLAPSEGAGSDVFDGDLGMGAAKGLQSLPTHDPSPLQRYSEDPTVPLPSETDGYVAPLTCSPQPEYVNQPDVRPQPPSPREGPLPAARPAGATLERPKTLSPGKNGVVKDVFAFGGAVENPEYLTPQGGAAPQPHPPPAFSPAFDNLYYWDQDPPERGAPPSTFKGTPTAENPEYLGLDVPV

[5] = biological target: T4, MEK3 (Homo sapiens, UniProt P46734); assay: KINOMEscan panel screen; assay type: binding; conditions: read-out: Percent Control(%)
T4 construct: purchased DiscoveRx KINOMEscan (Ambit Biosciences)

[6] = biological target: T5, ROS1 (Homo sapiens, UniProt P08922); assay: KINOMEscan panel screen; assay type: binding; conditions: read-out: Percent Control(%)
T5 construct: purchased DiscoveRx KINOMEscan (Ambit Biosciences)

[7] = biological target: T6, AURKA (Homo sapiens, UniProt O14965); assay: KINOMEscan panel screen; assay type: binding; conditions: read-out: Percent Control(%)
T6 construct: purchased DiscoveRx KINOMEscan (Ambit Biosciences)

[8] = biological target: T7, TAOK2 (Homo sapiens, UniProt Q9UL54); assay: KINOMEscan panel screen; assay type: binding; conditions: read-out: Percent Control(%)
T7 construct: purchased DiscoveRx KINOMEscan (Ambit Biosciences)

[9] = biological target: T8, EGFR(S752-I759del) (Homo sapiens, UniProt P00533, DEL752-759); assay: KINOMEscan panel screen; assay type: binding; conditions: read-out: Percent Control(%)
T8 construct: purchased DiscoveRx KINOMEscan (Ambit Biosciences)
T8 sequence (P00533 with tags, fused parts or gaps DEL752-759 limits assumed): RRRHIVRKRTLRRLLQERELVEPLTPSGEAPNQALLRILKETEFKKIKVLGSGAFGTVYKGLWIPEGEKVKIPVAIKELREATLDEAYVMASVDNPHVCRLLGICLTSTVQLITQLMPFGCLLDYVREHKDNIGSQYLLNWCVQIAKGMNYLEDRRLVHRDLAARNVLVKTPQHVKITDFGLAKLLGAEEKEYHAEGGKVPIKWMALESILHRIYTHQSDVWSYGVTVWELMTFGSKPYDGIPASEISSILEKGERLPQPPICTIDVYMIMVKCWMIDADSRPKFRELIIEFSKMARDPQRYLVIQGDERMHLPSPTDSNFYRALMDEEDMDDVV

[10] = biological target: T9, BUB1 (Homo sapiens, UniProt O43683); assay: KINOMEscan panel screen; assay type: binding; conditions: read-out: Percent Control(%)
T9 construct: purchased DiscoveRx KINOMEscan (Ambit Biosciences)

[11] = test system: WM2664; assay: MTT cell viability assay; conditions: Homo sapiens, WM 266-4, 72 h
[12] = biological target: T10, VRK2 (Homo sapiens, UniProt Q86Y07); assay: KINOMEscan panel screen; assay type: binding; conditions: read-out: Percent Control(%)
T10 construct: purchased DiscoveRx KINOMEscan (Ambit Biosciences)

[13] = biological target: T11, ABL1(F317I)-nonphosphorylated (Homo sapiens, UniProt P00519, F317I); assay: KINOMEscan panel screen; assay type: binding; conditions: read-out: Percent Control(%)
T11 construct: purchased DiscoveRx KINOMEscan (Ambit Biosciences)

[14] = biological target: T12, CSNK1G3 (Homo sapiens, UniProt Q9Y6M4); assay: KINOMEscan panel screen; assay type: binding; conditions: read-out: Percent Control(%)
T12 construct: purchased DiscoveRx KINOMEscan (Ambit Biosciences)

[15] = biological target: T13, EPHB2 (Homo sapiens, UniProt P29323); assay: KINOMEscan panel screen; assay type: binding; conditions: read-out: Percent Control(%)
T13 construct: purchased DiscoveRx KINOMEscan (Ambit Biosciences)

[16] = test system: B16; assay: MTT cell viability assay; conditions: Mus musculus, B16, 72 h
[17] = biological target: BTK (Homo sapiens, UniProt Q06187); assay: KINOMEscan panel screen; assay type: binding; conditions: read-out: Percent Control(%)
Sequence of BTK (Q06187 whole entry): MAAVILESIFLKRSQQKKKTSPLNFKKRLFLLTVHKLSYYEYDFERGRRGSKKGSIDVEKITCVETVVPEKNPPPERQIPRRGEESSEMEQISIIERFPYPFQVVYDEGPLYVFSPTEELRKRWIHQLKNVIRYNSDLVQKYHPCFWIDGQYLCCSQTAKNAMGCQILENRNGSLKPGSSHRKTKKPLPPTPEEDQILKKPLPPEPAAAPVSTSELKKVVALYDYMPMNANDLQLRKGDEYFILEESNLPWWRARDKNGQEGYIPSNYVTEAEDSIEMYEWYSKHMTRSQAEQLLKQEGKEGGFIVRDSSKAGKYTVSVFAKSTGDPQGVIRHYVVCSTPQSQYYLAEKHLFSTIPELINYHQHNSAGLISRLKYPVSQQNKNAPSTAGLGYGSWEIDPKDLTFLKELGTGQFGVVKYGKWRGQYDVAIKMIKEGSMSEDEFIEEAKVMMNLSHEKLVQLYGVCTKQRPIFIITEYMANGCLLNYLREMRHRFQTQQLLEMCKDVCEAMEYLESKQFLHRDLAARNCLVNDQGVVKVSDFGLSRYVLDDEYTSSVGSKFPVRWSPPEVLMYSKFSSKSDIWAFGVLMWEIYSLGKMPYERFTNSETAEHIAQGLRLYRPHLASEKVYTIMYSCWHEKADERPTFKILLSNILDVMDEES

[18] = biological target: T14, GRK1 (Homo sapiens, UniProt Q15835); assay: KINOMEscan panel screen; assay type: binding; conditions: read-out: Percent Control(%)
T14 construct: purchased DiscoveRx KINOMEscan (Ambit Biosciences)

[19] = biological target: T15, ERK1 (Homo sapiens, UniProt P27361); assay: KINOMEscan panel screen; assay type: binding; conditions: read-out: Percent Control(%)
T15 construct: purchased DiscoveRx KINOMEscan (Ambit Biosciences)

[20] = biological target: T16, NEK6 (Homo sapiens, UniProt Q9HC98); assay: KINOMEscan panel screen; assay type: binding; conditions: read-out: Percent Control(%)
T16 construct: purchased DiscoveRx KINOMEscan (Ambit Biosciences)

[21] = biological target: T17, MST4 (Homo sapiens, UniProt Q9P289); assay: KINOMEscan panel screen; assay type: binding; conditions: read-out: Percent Control(%)
T17 construct: purchased DiscoveRx KINOMEscan (Ambit Biosciences)

[22] = biological target: T18, KIT(V559D,T670I) (Homo sapiens, UniProt P10721, T670I/V559D); assay: KINOMEscan panel screen; assay type: binding; conditions: read-out: Percent Control(%)
T18 construct: purchased DiscoveRx KINOMEscan (Ambit Biosciences)

[23] = biological target: T19, ALK(C1156Y) (Homo sapiens, UniProt Q9UM73, C1156Y); assay: KINOMEscan panel screen; assay type: binding; conditions: read-out: Percent Control(%)
T19 construct: purchased DiscoveRx KINOMEscan (Ambit Biosciences)

[24] = biological target: T20, CDKL3 (Homo sapiens, UniProt Q8IVW4); assay: KINOMEscan panel screen; assay type: binding; conditions: read-out: Percent Control(%)
T20 construct: purchased DiscoveRx KINOMEscan (Ambit Biosciences)

[25] = biological target: T21, TSSK1B (Homo sapiens, UniProt Q9BXA7); assay: KINOMEscan panel screen; assay type: binding; conditions: read-out: Percent Control(%)
T21 construct: purchased DiscoveRx KINOMEscan (Ambit Biosciences)
T21 sequence (Q9BXA7 whole entry): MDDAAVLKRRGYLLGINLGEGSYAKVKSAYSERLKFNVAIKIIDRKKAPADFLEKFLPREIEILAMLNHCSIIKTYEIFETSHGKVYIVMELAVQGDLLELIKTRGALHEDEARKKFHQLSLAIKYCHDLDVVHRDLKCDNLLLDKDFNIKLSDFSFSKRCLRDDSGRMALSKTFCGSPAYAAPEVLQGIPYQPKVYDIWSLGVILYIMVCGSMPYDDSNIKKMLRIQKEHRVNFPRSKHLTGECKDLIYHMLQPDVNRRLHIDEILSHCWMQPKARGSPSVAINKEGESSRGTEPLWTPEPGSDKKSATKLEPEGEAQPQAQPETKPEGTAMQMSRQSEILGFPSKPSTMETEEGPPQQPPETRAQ

[26] = biological target: T22, DCAMKL3 (Homo sapiens, UniProt Q9C098); assay: KINOMEscan panel screen; assay type: binding; conditions: read-out: Percent Control(%)
T22 construct: purchased DiscoveRx KINOMEscan (Ambit Biosciences)

[27] = biological target: T23, AURKB (Homo sapiens, UniProt Q96GD4); assay: KINOMEscan panel screen; assay type: binding; conditions: read-out: Percent Control(%)
T23 construct: purchased DiscoveRx KINOMEscan (Ambit Biosciences)
T23 sequence (Q96GD4 whole entry): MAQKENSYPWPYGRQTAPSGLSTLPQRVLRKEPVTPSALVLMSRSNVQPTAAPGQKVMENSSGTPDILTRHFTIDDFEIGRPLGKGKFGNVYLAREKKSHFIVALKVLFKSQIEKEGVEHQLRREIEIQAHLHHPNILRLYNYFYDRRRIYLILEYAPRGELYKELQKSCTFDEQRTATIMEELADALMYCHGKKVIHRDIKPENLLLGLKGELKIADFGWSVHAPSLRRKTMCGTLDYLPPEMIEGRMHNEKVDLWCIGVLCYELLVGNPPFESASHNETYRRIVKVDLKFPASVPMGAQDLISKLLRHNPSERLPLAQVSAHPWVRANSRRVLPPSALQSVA

[28] = biological target: T24, CLK4 (Homo sapiens, UniProt Q9HAZ1); assay: KINOMEscan panel screen; assay type: binding; conditions: read-out: Percent Control(%)
T24 construct: purchased DiscoveRx KINOMEscan (Ambit Biosciences)

[29] = biological target: T25, TIE2 (Homo sapiens, UniProt Q02763); assay: KINOMEscan kinase binding assay (Kd)
T25 construct: purchased DiscoveRx KINOMEscan (Ambit Biosciences)
T25 sequence (Q02763 23-1124): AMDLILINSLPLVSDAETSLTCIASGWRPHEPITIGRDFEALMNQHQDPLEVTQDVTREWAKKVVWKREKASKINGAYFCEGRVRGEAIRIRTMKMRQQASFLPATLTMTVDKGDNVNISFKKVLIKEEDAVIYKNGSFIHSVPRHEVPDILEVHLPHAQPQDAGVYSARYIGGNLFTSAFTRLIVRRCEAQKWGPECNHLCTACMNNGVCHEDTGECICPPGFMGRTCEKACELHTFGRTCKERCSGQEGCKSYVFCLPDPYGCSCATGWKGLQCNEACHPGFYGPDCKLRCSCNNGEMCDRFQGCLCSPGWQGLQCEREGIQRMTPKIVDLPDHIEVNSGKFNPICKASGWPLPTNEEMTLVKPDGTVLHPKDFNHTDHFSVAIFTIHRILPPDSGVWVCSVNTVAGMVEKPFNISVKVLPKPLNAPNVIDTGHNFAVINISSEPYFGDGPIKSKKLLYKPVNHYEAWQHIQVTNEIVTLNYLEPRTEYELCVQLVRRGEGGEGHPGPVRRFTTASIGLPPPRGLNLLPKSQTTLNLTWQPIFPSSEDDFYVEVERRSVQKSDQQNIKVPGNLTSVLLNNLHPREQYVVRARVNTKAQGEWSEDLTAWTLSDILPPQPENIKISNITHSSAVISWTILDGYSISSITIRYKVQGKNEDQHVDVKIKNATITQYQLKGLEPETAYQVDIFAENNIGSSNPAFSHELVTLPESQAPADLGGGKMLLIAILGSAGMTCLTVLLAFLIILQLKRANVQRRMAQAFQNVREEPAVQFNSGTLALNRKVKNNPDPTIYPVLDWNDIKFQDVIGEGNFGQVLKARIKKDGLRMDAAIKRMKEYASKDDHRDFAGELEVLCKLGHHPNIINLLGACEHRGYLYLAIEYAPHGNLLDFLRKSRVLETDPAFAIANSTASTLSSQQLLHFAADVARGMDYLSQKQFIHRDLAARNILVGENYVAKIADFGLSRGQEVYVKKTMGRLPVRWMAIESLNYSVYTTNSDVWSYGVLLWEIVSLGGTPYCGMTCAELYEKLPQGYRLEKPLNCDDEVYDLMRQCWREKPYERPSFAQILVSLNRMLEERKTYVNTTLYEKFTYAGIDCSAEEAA

[30] = biological target: T26, DAPK3 (Homo sapiens, UniProt O43293); assay: KINOMEscan panel screen; assay type: binding; conditions: read-out: Percent Control(%)
T26 construct: purchased DiscoveRx KINOMEscan (Ambit Biosciences)

[31] = biological target: T27, JAK1(JH2domain-pseudokinase) (Homo sapiens, UniProt P23458); assay: KINOMEscan panel screen; assay type: binding; conditions: read-out: Percent Control(%)
T27 construct: JAK1(JH2domain-pseudokinase); purchased DiscoveRx KINOMEscan (Ambit Biosciences)

[32] = biological target: T28, PIP5K1C (Homo sapiens, UniProt O60331); assay: KINOMEscan panel screen; assay type: binding; conditions: read-out: Percent Control(%)
T28 construct: purchased DiscoveRx KINOMEscan (Ambit Biosciences)

[33] = biological target: T29, MEK2 (Homo sapiens, UniProt P36507); assay: KINOMEscan panel screen; assay type: binding; conditions: read-out: Percent Control(%)
T29 construct: purchased DiscoveRx KINOMEscan (Ambit Biosciences)

[34] = biological target: T30, TYRO3 (Homo sapiens, UniProt Q06418); assay: KINOMEscan panel screen; assay type: binding; conditions: read-out: Percent Control(%)
T30 construct: purchased DiscoveRx KINOMEscan (Ambit Biosciences)

[35] = biological target: T31, ABL1(T315I)-phosphorylated (Homo sapiens, UniProt P00519, T315I); assay: KINOMEscan panel screen; assay type: binding; conditions: read-out: Percent Control(%)
T31 construct: purchased DiscoveRx KINOMEscan (Ambit Biosciences)

[36] = biological target: T32, CHEK1 (Homo sapiens, UniProt O14757); assay: KINOMEscan panel screen; assay type: binding; conditions: read-out: Percent Control(%)
T32 construct: purchased DiscoveRx KINOMEscan (Ambit Biosciences)
T32 sequence (O14757 1-476): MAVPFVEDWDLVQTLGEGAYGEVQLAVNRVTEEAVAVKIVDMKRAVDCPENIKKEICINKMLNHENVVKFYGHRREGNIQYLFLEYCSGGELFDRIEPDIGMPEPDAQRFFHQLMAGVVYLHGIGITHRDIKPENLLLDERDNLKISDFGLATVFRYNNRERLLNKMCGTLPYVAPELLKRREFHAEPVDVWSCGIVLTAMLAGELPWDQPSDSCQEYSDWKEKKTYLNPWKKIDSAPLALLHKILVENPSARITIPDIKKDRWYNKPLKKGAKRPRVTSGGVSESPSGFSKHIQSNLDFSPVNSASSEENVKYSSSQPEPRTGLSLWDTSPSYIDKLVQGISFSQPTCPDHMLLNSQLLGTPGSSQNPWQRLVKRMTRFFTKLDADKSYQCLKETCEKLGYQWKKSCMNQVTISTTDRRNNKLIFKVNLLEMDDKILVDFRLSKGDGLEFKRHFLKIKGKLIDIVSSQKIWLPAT

T1 sequence (Q07912 whole entry): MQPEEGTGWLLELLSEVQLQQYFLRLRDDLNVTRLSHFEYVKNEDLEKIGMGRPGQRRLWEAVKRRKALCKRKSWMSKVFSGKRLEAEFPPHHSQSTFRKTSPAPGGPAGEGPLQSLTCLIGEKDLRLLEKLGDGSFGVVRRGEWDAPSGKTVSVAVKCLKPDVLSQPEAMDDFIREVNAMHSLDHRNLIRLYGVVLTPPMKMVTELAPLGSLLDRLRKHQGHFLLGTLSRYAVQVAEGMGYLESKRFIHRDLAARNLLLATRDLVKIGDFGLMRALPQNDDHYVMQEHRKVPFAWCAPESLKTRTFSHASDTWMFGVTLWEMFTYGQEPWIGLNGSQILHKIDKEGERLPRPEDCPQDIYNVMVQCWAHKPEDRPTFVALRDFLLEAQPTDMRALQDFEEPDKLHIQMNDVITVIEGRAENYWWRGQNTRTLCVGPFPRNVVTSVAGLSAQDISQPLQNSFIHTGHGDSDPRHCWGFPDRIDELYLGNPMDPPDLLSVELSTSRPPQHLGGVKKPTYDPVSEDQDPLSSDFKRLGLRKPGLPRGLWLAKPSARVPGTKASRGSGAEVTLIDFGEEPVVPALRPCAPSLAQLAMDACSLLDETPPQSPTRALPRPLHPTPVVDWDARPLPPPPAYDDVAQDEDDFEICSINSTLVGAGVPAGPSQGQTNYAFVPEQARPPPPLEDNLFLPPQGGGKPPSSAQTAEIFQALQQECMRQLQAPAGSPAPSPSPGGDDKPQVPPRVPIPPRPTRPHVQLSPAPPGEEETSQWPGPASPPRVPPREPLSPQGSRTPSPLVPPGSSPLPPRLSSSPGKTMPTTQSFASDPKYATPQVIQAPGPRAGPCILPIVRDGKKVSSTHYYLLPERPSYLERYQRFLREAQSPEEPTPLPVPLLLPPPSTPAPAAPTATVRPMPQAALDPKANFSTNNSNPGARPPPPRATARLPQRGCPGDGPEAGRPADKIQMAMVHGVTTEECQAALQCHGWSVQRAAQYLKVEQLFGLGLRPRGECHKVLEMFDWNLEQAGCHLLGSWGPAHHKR

**Q.** With CC(C)(C)c1cc(NC(=O)Nc2ccc(Oc3ncnc4[nH]ncc34)c(F)c2)no1 [SKLB-677, 1-(4-(1H-pyrazolo[3,4-d]pyrimidin-4-yloxy)-3-fluorophenyl)-3-(5-tert-butylisoxazol-3-yl)urea] as the compound, how does the remaining binding at 10 µM [1] read?
**A.** 37%

**Q.** What about the remaining binding at 10 µM [2] of the same compound?
**A.** 89%

**Q.** What about the remaining binding at 10 µM [3] of the same compound?
**A.** 100%

**Q.** And the remaining binding at 10 µM [4]?
**A.** 100%

**Q.** And the remaining binding at 10 µM [5]?
**A.** 63%

**Q.** What about the remaining binding at 10 µM [6] of the same compound?
**A.** 0.1%

**Q.** What about the remaining binding at 10 µM [7] of the same compound?
**A.** 35%

**Q.** What about the remaining binding at 10 µM [8] of the same compound?
**A.** 0.35%

**Q.** And the remaining binding at 10 µM [9]?
**A.** 38%

**Q.** What about the remaining binding at 10 µM [10] of the same compound?
**A.** 66%

**Q.** What about the IC50 [11] of the same compound?
**A.** > 10 µM

**Q.** And the remaining binding at 10 µM [12]?
**A.** 100%

**Q.** And the remaining binding at 10 µM [13]?
**A.** 2.2%

**Q.** And the remaining binding at 10 µM [14]?
**A.** 70%

**Q.** And the remaining binding at 10 µM [15]?
**A.** 5.2%

**Q.** What about the IC50 [16] of the same compound?
**A.** > 10 µM

**Q.** And the remaining binding at 10 µM [17]?
**A.** 100%

**Q.** What about the remaining binding at 10 µM [18] of the same compound?
**A.** 97%

**Q.** What about the remaining binding at 10 µM [19] of the same compound?
**A.** 76%

**Q.** What about the remaining binding at 10 µM [20] of the same compound?
**A.** 99%

**Q.** And the remaining binding at 10 µM [21]?
**A.** 24%

**Q.** What about the remaining binding at 10 µM [22] of the same compound?
**A.** 0.1%

**Q.** What about the remaining binding at 10 µM [23] of the same compound?
**A.** 17%

**Q.** And the remaining binding at 10 µM [24]?
**A.** 0.75%

**Q.** What about the remaining binding at 10 µM [25] of the same compound?
**A.** 100%

**Q.** What about the remaining binding at 10 µM [26] of the same compound?
**A.** 81%

**Q.** And the remaining binding at 10 µM [27]?
**A.** 2.6%

**Q.** And the remaining binding at 10 µM [28]?
**A.** 9.6%

**Q.** What about the Kd [29] of the same compound?
**A.** 0.099 µM

**Q.** What about the remaining binding at 10 µM [30] of the same compound?
**A.** 71%

**Q.** And the remaining binding at 10 µM [31]?
**A.** 74%

**Q.** What about the remaining binding at 10 µM [32] of the same compound?
**A.** 51%

**Q.** And the remaining binding at 10 µM [33]?
**A.** 5.9%

**Q.** What about the remaining binding at 10 µM [34] of the same compound?
**A.** 0.35%

**Q.** What about the remaining binding at 10 µM [35] of the same compound?
**A.** 3.3%

**Q.** And the remaining binding at 10 µM [36]?
**A.** 100%

Reference: article PMC4620497 (Scientific Reports, 2015)
